# Measured values taken from US4421685A, “Process for producing an insulin” (Eli Lilly and Company, priority 1981, dated 1983).
# What was measured:
# insulin receptor = insulin receptor (Homo sapiens, UniProt P06213); test: insulin radioreceptor assay; assay type: binding
# Excerpt: (§1) Moreover, the product can be assayed for purity and activity by recognized methods such as polyacrylamide gel electrophoresis, amino acid analysis, insulin radioreceptorassay, insulin radioimmunoassay, high performance liquid chromatography (HPLC), ultraviolet spectrum, dansylation, rabbit blood glucose assay, and the like.
# After acidification to pH 3.15 with glacial acetic acid, a portion of this solution was gel filtered on a 1.5×90 cm. column of Sephadex G-50 (Superfine) equilibrated and eluted with 1 M acetic acid at 4°-8° C. The [N-formyl-Gly^1 A] human insulin peak (elution volume 87-95 ml.) was pooled, aliquotted and lyophilized. This protein was judged to be quite clean by HPLC and amino acid analysis. The bioactivity of [N-formyl-Gly^1 -A] human insulin evaluated by radioreceptor assay was 17% relative to a human insulin standard.
# rabbit blood glucose = test: USP rabbit assay (rabbit blood glucose assay); assay type: in vivo; conditions: 144 rabbits; zinc insulin crystals redissolved in 0.01 N HCl
# Excerpt: as §1
# The resulting human insulin preparation was judged to be quite pure by polyacrylamide gel electrophoresis (a single band), amino acid analysis, insulin radioreceptorassay, insulin radioimmunoassay, HPLC, dansylation and UV spectrum. […] (anhydrous).
# Chain of insulin receptor (P06213 28-758 limits assumed): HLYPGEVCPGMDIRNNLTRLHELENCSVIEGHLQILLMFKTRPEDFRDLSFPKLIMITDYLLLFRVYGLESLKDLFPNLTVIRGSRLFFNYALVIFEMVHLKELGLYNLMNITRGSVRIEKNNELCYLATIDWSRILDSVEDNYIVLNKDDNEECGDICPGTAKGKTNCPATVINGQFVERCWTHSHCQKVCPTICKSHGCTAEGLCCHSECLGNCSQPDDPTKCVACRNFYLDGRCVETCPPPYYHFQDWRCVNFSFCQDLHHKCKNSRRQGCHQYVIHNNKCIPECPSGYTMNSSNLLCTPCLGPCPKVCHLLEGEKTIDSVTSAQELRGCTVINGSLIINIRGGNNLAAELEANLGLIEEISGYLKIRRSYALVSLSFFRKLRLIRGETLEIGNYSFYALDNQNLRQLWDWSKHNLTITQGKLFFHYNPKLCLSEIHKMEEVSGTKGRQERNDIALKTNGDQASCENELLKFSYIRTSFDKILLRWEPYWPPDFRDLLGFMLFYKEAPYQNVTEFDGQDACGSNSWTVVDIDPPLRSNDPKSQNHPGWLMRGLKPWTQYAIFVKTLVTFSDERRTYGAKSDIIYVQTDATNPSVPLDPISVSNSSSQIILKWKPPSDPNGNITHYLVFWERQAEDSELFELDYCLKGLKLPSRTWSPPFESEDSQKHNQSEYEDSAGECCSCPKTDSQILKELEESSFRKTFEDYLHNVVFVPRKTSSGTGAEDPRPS
# Chain of insulin receptor (P06213 763-1382 partner limits assumed): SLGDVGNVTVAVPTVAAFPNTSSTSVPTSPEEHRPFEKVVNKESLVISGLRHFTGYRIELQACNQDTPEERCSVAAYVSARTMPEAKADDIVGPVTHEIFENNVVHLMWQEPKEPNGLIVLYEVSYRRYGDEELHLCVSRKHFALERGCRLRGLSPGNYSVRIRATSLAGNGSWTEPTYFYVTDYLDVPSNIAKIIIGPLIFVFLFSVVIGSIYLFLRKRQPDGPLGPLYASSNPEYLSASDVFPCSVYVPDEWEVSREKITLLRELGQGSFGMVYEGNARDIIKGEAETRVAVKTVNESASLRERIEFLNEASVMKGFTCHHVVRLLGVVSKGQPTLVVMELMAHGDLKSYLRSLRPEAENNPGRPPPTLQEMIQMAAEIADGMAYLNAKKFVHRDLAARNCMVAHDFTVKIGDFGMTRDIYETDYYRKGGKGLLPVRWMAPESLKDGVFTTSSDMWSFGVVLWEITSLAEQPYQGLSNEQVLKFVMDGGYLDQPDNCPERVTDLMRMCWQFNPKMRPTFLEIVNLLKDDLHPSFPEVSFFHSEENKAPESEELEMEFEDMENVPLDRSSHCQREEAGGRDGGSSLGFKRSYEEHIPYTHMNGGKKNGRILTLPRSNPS
bioactivity evaluated by radioreceptor assay relative to a human insulin standard (insulin receptor),Substance,"potency, USP rabbit assay (rabbit blood glucose)"
17%,[N-formyl-Gly^1 -A] human insulin,–
–,human insulin,26.3±1.8 units per mg. (anhydrous)
